Experimental data reported in patent US8617524B2, “Depigmenting keratin materials utilizing dithiolane compounds” (L'Oreal, priority 2008, dated 2013).

Tests used:
[1] = test system: co-culture of keratinocytes and melanocytes; test: Activity on constitutive melanogenesis (inhibition of melanin synthesis; thiouracil/leucine incorporation ratio); type: cell-based; conditions: for Maximum Activity: inhibitory activity on melanin synthesis, ratio of incorporation of thiouracil to leucine, relative to 100% of the control without test compound
Protocol: (§1) The modulatory effect of the compounds on constitutive melanogenesis was measured according to the method described in FR-A-2,734,825 and also in the article by Schmidt et al., Anal. Biochem., 235(2), 1996, pp. 113-118. This test is performed on a co-culture of keratinocytes and melanocytes.
For the test compounds, the inhibitory activity on melanin synthesis was determined, by estimating the ratio of incorporation of thiouracil to the incorporation of leucine, relative to 100% of the control (the control corresponds to the test performed without test compound).

[2] = test system: co-culture of keratinocytes and melanocytes; test: Cytotoxicity on a co-culture; type: cell-based
Protocol: as §1

| SMILES | Maximum Activity [1] [%] | Cytotoxicity on a co-culture [2] | depigmenting action compared with arbutin and kojic acid ([1]; conclusion in words from the table of Example 25) |
| --- | --- | --- | --- |
| O=c1cc(CO)occ1O [Kojic acid] | −30 | 100 µM |  |
| CC1(C(N)=O)CSSC1 [Compound 2, 4-methyl-1,2-dithiolane-4-carboxamide] | −76 | 100 µM | greater depigmenting action than arbutin and kojic acid |
| OC[C@H]1O[C@@H](Oc2ccc(O)cc2)[C@H](O)[C@@H](O)[C@@H]1O [Arbutin] | −44 | Non-cytotoxic |  |
